Data set [1] deals with acetylcholine-induced writhing. Description: Acetylcholine-induced writhing in mice. The data set is classed as in vivo. The settings on record: Mus musculus. How it is done:
Male mice weighing 22-24 g were maintained in groups of 4 at standard conditions (temperature 22±1° C., humidity: 40-50%, dark-light rhythm: 12/12 h) with food and water freely available.
Abdominal contractions (writhings) were induced by intraperitoneal (i.p.) injection of acetylcholine (ACh) (chloride, 5.5. mg/kg) in a volume of 10 ml/kg. Immediately thereafter, mice were placed in a plastic cage and the number of abdominal contractions (writhes) was counted for 10 min. The total number of abdominal contractions per animal and number of animals with contractions were calculated.
Drugs were prepared daily. All compounds were given orally. Tramadol hydrochloride and flupirtine maleate were administered 30 min before acetylcholine injection.
ED50 values were estimated either by the ratio of animals protected from writhings to the number of animals in groups or by the mean number of writhes in each group of animals. The values were calculated by using linear regression. The statistical analysis of differences between calculated and measured effects was carried out by the Kruscall-Wallis test. Asterisks (*) indicate the significance level p<0.05.

In data set [2] the test system is seizures induced by subconvulsive pentetrazol doses. Description: Submaximal pentetrazol-induced seizures in mice. The note with it: for Intensity (scored) of seizures / Number of animals with seizures: n = 10. How it is done:
Male mice weighing 22-24 g were used. Animals housed in groups of 4 at standard conditions (temperature 22° C., humidity 40-60%) with food and water freely available. Lights were on from 06.00 a.m. to 06.00 p.m. The experiments were approved by the Animal Health Committee of the University which is responsible for the care and proper use of experimental animals.
Seizures were induced by intraperitoneal administration of pentetrazol at the subconvulsive dose of 30 mg/kg. The latency of the first seizure reaction, the seizure intensity and the number of animals with seizures were calculated for the first 10 min after i.p. injection of pentetrazol. Tramadol (hydrochloride) and flupirtine (maleate) were given intraperitoneally (15 min before pentetrazol administration). Drugs were prepared daily in 0.9% saline.

In another data set the test system is skeletal muscle tone. Kind of data set: Skeletal muscle tone in conscious rats. The data set is classed as in vivo, Sprague-Dawley rats. On the procedure:
The experimental set-up has been described in all details in a former publication (Nickel et al. Arzn. Forsch./Drug Res. 1997; 47; 1081-6). Briefly, the measurement of skeletal muscle tone was done by recording successively the resistance of flexor and extensor muscles which counteracted the forced straightening and bending of the foot in the ankle joint. Pressure changes induced by the movements of the foot were continuously registered. Signals were analyzed on a personal computer. A corresponding computer program calculated the resistance values of flexors and extensors of the foot over 10 min recording periods.
Male Sprague-Dawley rats weighing 200-220 g were used.
Drugs (tramadol hydrochloride, flupirtine maleate) were prepared in physiological saline daily and given intraperitoneally.
The statistical analysis of differences between calculated and measured effects was carried out by the one-way ANOVA. Asterisks (*) indicate the significance level p<0.01.

The test system of a further data set is tramadol-induced emesis. Description: Emetic response in conscious mongrel dogs. The data set is classed as in vivo. The settings on record: Tramadol 14 mg/kg i.v., first 60 min, n = 5. On the procedure:
Mongrel dogs of both sexes weighing up to 15 kg were used. They were deprived of food overnight but allowed water ad libitum. Test compounds were administered to conscious animals by a slow infusion via the saphenous vein. Emetic responses (retches, strong salivation vomits with output) were monitored 60 min following drug administration (Borison and Wang, 1953). All dogs received 14 mg/kg tramadol i.v. repeatedly with an interval of one week. Positive responder dogs were selected and used in further experiments.

Where [3] appears, read: Tramadol 20 mg/kg i.p., 15 min before pentetrazol 30 mg/kg i.p.
Setting [4] is: Tramadol 40 mg/kg i.p., pentetrazol 30 mg/kg i.p.
The mark [5] stands for this setting: Flupirtine 10 mg/kg i.p., pentetrazol 30 mg/kg i.p.
Setting [6] is: Flupirtine 20 mg/kg i.p., pentetrazol 30 mg/kg i.p.

Like-named read-outs stand apart in the source and are kept apart here. Marks after values point to notes of the source that are not given here.

Regarding `COc1cccc([C@@]2(O)CCCC[C@H]2CN(C)C)c1` (racemic) [Tramadol, trans-(+/−)-2-[(Dimethylamino)methyl]-1-(3-methoxyphenyl)cyclohexanol], the ED50 (in general, the dose at which the effect has come halfway, by size or by number of responders) in data set [1] (read-out: oral ED50-values calculated on the basis of animals protected from writhings) is 4.87 mg/kg; in data set [1] (read-out: oral ED50-values calculated on the basis of reduction of number of writhings) it was 4.14 mg/kg. In addition, the “Intensity (scored) of seizures” value in data set [2] (setting [3]) is 1.70*; in data set [2] (setting [4]), 3.00*. Besides, the “Number of animals with seizures” value in data set [2] (setting [3]) is reported as 8*; in data set [2] (setting [4]), 10*. The “effect on acute seizures induced by subconvulsive doses of pentetrazol (in words)” value in data set [2] (mice, i.p.) was “proconvulsive effects”. In addition, the “Changes in muscle tonus (in % compared to placebo)” value in the data set with skeletal muscle tone (Tramadol 20 mg/kg i.p.) was “+12%”; with skeletal muscle tone (Tramadol 40 mg/kg i.p.), “+47%*”. For the same compound, in the data set with tramadol-induced emesis, the “Emetic response, % of dogs” value came out at 100%.
Regarding `CCOC(=O)Nc1ccc(NCc2ccc(F)cc2)nc1N` [Flupirtine], the ED50 in data set [1] (mice, oral, 30 min before ACh 5.5 mg/kg i.p., read-out: oral ED50-values calculated on the basis of animals protected from writhings) was 27.2 mg/kg; in data set [1] (mice, oral, 30 min before ACh 5.5 mg/kg i.p., read-out: oral ED50-values calculated on the basis of reduction of number of writhings), 21 mg/kg. In addition, the “Intensity (scored) of seizures” value in data set [2] (setting [5]) was determined as 0.20; in data set [2] (setting [6]), 0.10. Further, the results for the “Number of animals with seizures” value in data set [2] (setting [5]) and in data set [2] (setting [6]) were 2 and 1, respectively. The “proconvulsive activity of tramadol, in the combination (in words)” value in data set [2] (mice, i.p., flupirtine with tramadol) was “almost completely attenuated”. Further, the “tramadol-induced skeletal muscle rigidity (in words)” value in the data set with skeletal muscle tone (Flupirtine 5-10 mg/kg i.p.) is listed as “completely abolished”.

The values are drawn from patent publication US7553858B2, “Combination of flupirtine and tramadol” (priority 2003, dated 2009).
